Experimental data: patent publication US5416099A, “Fibrinogen receptor antagonists” (Merck & Co., Inc., priority 1993, dated 1995)

System: Human platelets
Test: ADP-stimulated platelet aggregation assay (gel-filtered human platelets)
Assay type: cell-based
Conditions: fibrinogen 100 μg/ml, Ca^2+ 1 mM, 10 uM ADP, 37° C., read-out: platelet aggregation inhibition potency, IC50
Protocol: An ADP-stimulated platelet aggregation assay was used to determine inhibition associated with compounds of the invention.
Human platelets were isolated from fresh blood, collected into acid citrate/dextrose by differential centrifugation followed by gel filtration on Sepharose 2B in divalent ion-free Tyrode's buffer (pH 7.4) containing 2% bovine serum albumin. Platelet aggregation was measured at 37° C. in a a Chronolog aggregometer. The reaction mixture contained gel-filtered human platelets (2×10^8 per ml), fibrinogen (100 μg/ml), Ca^2+ (1 mM), and the compound to be tested. Aggregation was initiated by adding 10 uM ADP 1 minute after the other components had been added. The reaction was allowed to proceed for at least 2 minutes. The extent of inhibition of aggregation was expressed as the percentage of the rate of aggregation observed in the absence of inhibitor. The IC50 is the dose of a particular compound inhibiting aggregation by 50% relative to a control lacking the compound.

Row | IC50 | Structure (SMILES)
1 | 0.92 µM | O=C(O)CCNC(=O)c1ccc2c(c1)C(=O)N(CCCC1CCNCC1)C2
2 | 14 µM | O=C(O)CNC(=O)c1ccc2c(c1)C(=O)N(CCCC1CCNCC1)C2
